Test results taken from patent US20080015146A1, “Dpp-IV Inhibitors” (SANTHERA PHARMACEUTICALS (DEUTSCHLAND) AG, priority 2004, published 2008).
pIC50: −log10 of the molar value. Where a name gives a salt, the structure may show the parent alone.

target: T1, DPP-IV (Homo sapiens, UniProt P27487); experiment: Continuous fluorimetric assay of inhibition of DPP-IV peptidase activity (cleavage of Gly-Pro-AMC); format: biochemical; conditions: substrate Gly-Pro-AMC 16 μM, pH 7.4, 25° C., 1% DMSO; assays carried out with human and porcine DPP-IV (comparable activities)
T1 construct: Soluble human DPP-IV lacking the transmembrane anchor (Gly31-Pro766); Pre-Pro-alpha-mating factor secretion leader (N, cleaved yes); made in house
Description: Inhibition of DPP-IV peptidase activity was monitored with a continuous fluorimetric assay. This assay is based on the cleavage of the substrate Gly-Pro-AMC (Bachem) by DPP-IV, releasing free AMC. The assay is carried out in 96-well microtiterplates. In a total volume of 100 μl compounds are preincubated with […] DPP-IV employing a buffer containing 10 mM Hepes, 150 mM NaCl, 0.005% Tween 20 (pH 7.4). […] The final concentration of DMSO is 1%. The inhibitory potential of the compounds were determined.
Soluble human DPP-IV lacking the transmembrane anchor (Gly31-Pro766) was expressed in a recombinant YEAST-strain as Pre-Pro-alpha-mating fusion. The secreted product (rhuDPP-IV-Gly31-Pro766) was purified from fermentation broth (>90% purity).

T1 sequence (P27487 31-766): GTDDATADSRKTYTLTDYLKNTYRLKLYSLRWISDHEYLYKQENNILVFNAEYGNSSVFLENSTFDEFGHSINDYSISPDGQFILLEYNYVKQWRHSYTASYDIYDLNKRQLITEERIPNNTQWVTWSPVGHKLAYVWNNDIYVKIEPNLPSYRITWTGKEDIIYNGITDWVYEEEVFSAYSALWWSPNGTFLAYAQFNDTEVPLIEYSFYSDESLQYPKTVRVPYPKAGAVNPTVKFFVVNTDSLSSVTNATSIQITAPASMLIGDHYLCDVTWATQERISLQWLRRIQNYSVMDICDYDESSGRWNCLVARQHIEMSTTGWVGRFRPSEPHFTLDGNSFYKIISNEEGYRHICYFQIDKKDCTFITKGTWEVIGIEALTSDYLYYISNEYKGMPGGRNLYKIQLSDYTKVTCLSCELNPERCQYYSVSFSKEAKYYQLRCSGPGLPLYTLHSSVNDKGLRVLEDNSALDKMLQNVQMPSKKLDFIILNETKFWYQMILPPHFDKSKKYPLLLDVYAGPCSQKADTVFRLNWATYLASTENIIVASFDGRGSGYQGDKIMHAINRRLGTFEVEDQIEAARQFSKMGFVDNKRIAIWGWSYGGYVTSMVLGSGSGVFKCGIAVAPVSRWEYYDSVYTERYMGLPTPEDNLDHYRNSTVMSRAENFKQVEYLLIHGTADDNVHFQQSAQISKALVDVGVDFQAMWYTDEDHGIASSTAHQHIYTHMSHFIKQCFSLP

Row | Compound | pIC50
1 | N[C@@H](CC(=O)N1CCC[C@H]1c1nc(-c2ccccc2)no1)Cc1ccccc1F [Example 1, (R)-3-Amino-4-(2-fluoro-phenyl)-1-[(S)-2-(3-phenyl-[1,2,4]oxadiazol-5-yl)-pyrrolidin-1-yl]-butan-1-one hydrochloride] | > 7.00
2 | N[C@@H](CC(=O)N1CCC[C@H]1c1nc(-c2cccc(Cl)c2)no1)Cc1ccccc1F [Example 2, (R)-3-Amino-1-{(S)-2-[3-(3-chloro-phenyl)[1,2,4]oxadiazol-5-yl)-pyrrolidin-1-yl}-4-(2-fluoro-phenyl)-butan-1-one hydrochloride] | > 7.00
3 | N[C@@H](CC(=O)N1CCC[C@H]1c1nc(-c2cccc(F)c2)no1)Cc1ccccc1F [Example 3, (R)-3-Amino-1-{(S)-2-[3-(3-fluoro-phenyl) [1,2,4]oxadiazol-5-yl)-pyrrolidin-1-yl}-4-(2-fluoro-phenyl)-butan-1-one hydrochloride] | > 7.00
4 | CS(=O)(=O)c1ccc(-c2noc([C@@H]3CCCN3C(=O)C[C@H](N)Cc3ccccc3F)n2)cc1 [Example 4, (R)-3-Amino-4-(2-fluoro-phenyl)-1-{(S)-2-[3-(4-methanesulphonyl-phenyl)[1,2,4]oxadiazol-5-yl]-pyrrolidin-1-yl}-butan-1-one hydrochloride] | > 7.00
5 | N[C@@H](CC(=O)N1CCC[C@H]1c1nc(-c2ccccn2)no1)Cc1ccccc1F [Example 5, (R)-3-Amino-4-(2-fluoro-phenyl)-1-[(S)-2-(3-pyridin-2-yl-[1,2,4]oxadiazol-5-yl)-pyrrolidin-1-yl]-butan-1-one] | > 7.00
6 | N[C@@H](CC(=O)N1CCC[C@H]1c1nc(-c2cccc(F)c2)no1)Cc1cccc(Cl)c1 [Example 6, (R)-3-Amino-4-(3-chloro-phenyl)-1-{(S)-2-[3-(3-fluoro-phenyl)-[1,2,4]oxadiazol-5-yl]-pyrrolidin-1-yl}-butan-1-one trifluoroacetic acid salt] | > 7.00
7 | N[C@@H](CC(=O)N1CCC[C@H]1c1nc(-c2cc(F)cc(F)c2)no1)Cc1ccccc1F [Example 7, (R)-3-Amino-1-{(S)-2-[3-(3,5-difluoro-phenyl)-[1,2,4]oxadiazol-5-yl)-pyrrolidin-1-yl}-4-(2-fluoro-phenyl)-butan-1-one trifluoracetic acid salt] | > 7.00
8 | N[C@@H](CC(=O)N1CCC[C@H]1c1nc(-c2ccc(F)cc2F)no1)Cc1ccccc1F [Example 8, (R)-3-Amino-1-{(S)-2-[3-(2,4-difluoro-phenyl)-[1,2,4]oxadiazol-5-yl)-pyrrolidin-1-yl}-4-(2-fluoro-phenyl)-butan-1-one trifluoracetic acid salt] | > 7.00
9 | CS(=O)(=O)c1cccc(-c2noc([C@@H]3CCCN3C(=O)C[C@H](N)Cc3ccccc3F)n2)c1 [Example 9, (R)-3-Amino-1-{(S)-2-[3-(3-methanesulphonyl-phenyl)-[1,2,4]oxadiazol-5-yl)-pyrrolidin-1-yl}-4-(2-fluoro-phenyl)-butan-1-one trifluoracetic acid salt] | > 7.00
10 | CS(=O)(=O)Nc1ccc(-c2noc([C@@H]3CCCN3C(=O)C[C@H](N)Cc3ccccc3F)n2)cc1 [Example 10, N-[4-(5-{(S)-1-[(R)-3-Amino-4-(2-fluoro-phenyl)-butyryl]-pyrrolidin-2-yl}-[1,2,4]oxadiazol-3-yl)-phenyl]-methanesulphonamide trifluoroacetic acid salt] | > 7.00
11 | N[C@@H](CC(=O)N1CCC[C@H]1c1nc(C2CC2)no1)Cc1ccccc1F [Example 11, (R)-3-Amino-1-[(S)-2-(3-cyclopropyl-[1,2,4]oxadiazol-5-yl)-pyrrolidin-1-yl]-4-(2-fluorophenyl)-butan-1-one trifluoracetic acid salt] | > 7.00
12 | N[C@@H](CC(=O)N1CCC[C@H]1c1nc(C2CCC2)no1)Cc1cc(F)c(F)cc1F [Example 15, (R)-3-Amino-1-[(S)-2-(3-cyclobutyl-[1,2,4]oxadiazol-5-yl)-pyrrolidin-1-yl]-4-(2,4,5-trifluoro-phenyl)-butan-1-one formate salt] | > 7.00
13 | COCC(C)(C)c1noc([C@@H]2CCCN2C(=O)C[C@H](N)Cc2cc(F)c(F)cc2F)n1 [Example 24, (R)-3-Amino-1-{(S)-2-[3-(2-methoxy-1,1-dimethyl-ethyl)-[1,2,4]oxadiazol-5-yl]-pyrrolidin-1-yl}-4-(2,4,5-trifluoro-phenyl)-butan-1-one formate salt] | > 7.00
14 | COCC1(c2noc([C@@H]3CCCN3C(=O)C[C@H](N)Cc3cc(F)c(F)cc3F)n2)CC1 [Example 25, (R)-3-Amino-1-{(S)-2-[3-(1-methoxymethyl-cyclopropyl)-[1,2,4]oxadiazol-5-yl]-pyrrolidin-1-yl}-4-(2,4,5-trifluoro-phenyl)-butan-1-one formate salt] | > 7.00
15 | N[C@@H](CC(=O)N1CC(F)(F)C[C@H]1c1nc(C2CC2)no1)Cc1cc(F)c(F)cc1F [Example 27, (R)-3-Amino-1-[(S)-2-(3-cyclopropyl-[1,2,4]oxadiazol-5-yl)-4,4-difluoro-pyrrolidin-1-yl]-4-(2,4,5-trifluoro-phenyl)-butan-1-one formate salt] | > 7.00
16 | N[C@@H](CC(=O)N1CCC[C@@H]1c1nc(-c2ccccc2)no1)Cc1ccccc1F [Example 28, (R)-3-Amino-4-(2-fluoro-phenyl)-1-[(R)-2-(3-phenyl-[1,2,4]oxadiazol-5-yl)-pyrrolidin-1-yl]-butan-1-one hydrochloride] | 6.00 to 7.00
17 | N[C@@H](CC(=O)N1CCC[C@@H]1c1nc(-c2cccc(Cl)c2)no1)Cc1ccccc1F [Example 29, (R)-3-Amino-1-{(R)-2-[3-(3-chloro-phenyl) [1,2,4]oxadiazol-5-yl)-pyrrolidin-1-yl}-4-(2-fluoro-phenyl)-butan-1-one hydrochloride] | 6.00 to 7.00

Row | Compound | pIC50
18 | N[C@@H](CC(=O)N1CCC[C@@H]1c1nc(-c2cccc(F)c2)no1)Cc1ccccc1F [Example 30, (R)-3-Amino-1-{(R)-2-[3-(3-fluoro-phenyl) [1,2,4]oxadiazol-5-yl)-pyrrolidin-1-yl}-4-(2-fluoro-phenyl)-butan-1-one hydrochloride] | 6.00 to 7.00
19 | CS(=O)(=O)c1ccc(-c2noc([C@H]3CCCN3C(=O)C[C@H](N)Cc3ccccc3F)n2)cc1 [Example 31, (R)-3-Amino-4-(2-fluoro-phenyl)-1-{(R)-2-[3-(4-methanesulphonyl-phenyl) [1,2,4]oxadiazol-5-yl]-pyrrolidin-1-yl}-butan-1-one hydrochloride] | > 7.00
20 | N[C@@H](CC(=O)N1CCC[C@@H]1c1nc(-c2ccccn2)no1)Cc1ccccc1F [Example 32, (R)-3-Amino-4-(2-fluoro-phenyl)-1-[(R)-2-(3-pyridin-2-yl-[1,2,4]oxadiazol-5-yl)pyrrolidin-1-yl]-butan-1-one hydrochloride] | 6.00 to 7.00
21 | N[C@@H](CC(=O)N1CCC[C@H]1c1noc(-c2ccc(F)cn2)n1)Cc1cc(F)c(F)cc1F [Example 36, (R)-3-Amino-1-{(S)-2-[5-(5-fluoro-pyridin-2-yl)-[1,2,4]oxadiazol-3-yl]-pyrrolidin-1-yl}-4-(2,4,5-trifluoro-phenyl)-butan-1-one formate salt] | > 7.00
22 | N[C@@H](CC(=O)N1CCC[C@H]1c1nc2cc(Cl)ccc2[nH]1)Cc1ccccc1F [Example 40, (R)-3-Amino-1-[(S)-2-(5-chloro-1H-benzoimidazol-2-yl)-pyrrolidin-1-yl]-4-(2-fluorophenyl)-butan-1-one trifluoroacetic acid salt] | > 7.00
23 | N[C@@H](CC(=O)N1CCC[C@H]1c1ncc(-c2ccccc2)[nH]1)Cc1ccccc1F [Example 41, formate salt] | 6.00 to 7.00
24 | N[C@@H](CC(=O)N1CCC[C@H]1c1cn(-c2ccccc2)nn1)Cc1ccccc1F [Example 42, formate salt] | 6.00 to 7.00
25 | N[C@@H](CC(=O)N1CCC[C@H]1c1ncn(-c2ccccc2)n1)Cc1ccccc1F [Example 43, formate salt] | > 7.00
26 | N[C@@H](CC(=O)N1CCC[C@H]1c1nnc(-c2ccccc2)[nH]1)Cc1ccccc1F [Example 44, formate salt] | 6.00 to 7.00
27 | N[C@@H](CC(=O)N1CCC[C@H]1c1nc(-c2ccccc2)co1)Cc1ccccc1F [Example 45, formate salt] | > 7.00
28 | N[C@@H](CC(=O)N1CCC[C@H]1c1nnc(-c2ccccc2)o1)Cc1ccccc1F [Example 46, formate salt] | 6.00 to 7.00
29 | N[C@@H](CC(=O)N1CCC[C@H]1c1ccn(-c2ccccc2)n1)Cc1ccccc1F [Example 47, formate salt] | 6.00 to 7.00
30 | CC(C)(C)n1cnc([C@@H]2CCCN2C(=O)C[C@H](N)Cc2cc(F)c(F)cc2F)n1 [Example 48] | > 7.00
31 | CC(C)(C)c1noc([C@@H]2CCN2C(=O)C[C@H](N)Cc2cc(F)c(F)cc2F)n1 [Example 49, (R)-3-Amino-1-[(S)-2-(3-tert-butyl-[1,2,4]oxadiazol-5-yl)-azetidin-1-yl]-4-(2,4,5-trifluorophenyl)-butan-1-one formate salt] | > 7.00
32 | N[C@@H](CC(=O)N1CC(N2CCC(C(F)(F)F)CC2)C1)Cc1ccccc1F [Example 50, (3R)-3-Amino-4-(2-fluoro-phenyl)-1-[3-(4-trifluoromethyl-piperidin-1-yl)-azetidin-1-yl]-butan-1-one] | 5.70 to 6.00
33 | N[C@@H](CC(=O)N1CC(N2CCN(c3ccccn3)CC2)C1)Cc1ccccc1F [Example 51, (3R)-3-Amino-4-(2-fluoro-phenyl)-1-[3-(4-pyridin-2-yl-piperazin-1-yl)-azetidin-1-yl]-butan-1-one] | 5.70 to 6.00
